Assay results from patent US6924302B2, “Substituted triazole diamine derivatives as kinase inhibitors” (Ortho McNeil Pharmaceutical, Inc., priority 2000, dated 2005).
Where two headings read alike, the source gives them in different places.

Key:
CDK1:Cyclin-B = target: T1, CDK1:Cyclin-B (Homo sapiens, UniProt P06493); test: CDK1 Screening Assay; format: biochemical; conditions: Kinase Selectivity, Tables 2a-2k; read-out: CDK1 IC50
T1 construct: purchased New England Biolabs 6020; host or cells: insect cells
Outline: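 Human CDK1:cyclin-B (30 ng/well) with biotinylated histone-H1 peptide and ^33P-γ-ATP, 1 h at 30° C, 1% DMSO, on streptavidin FlashPlate; incorporation read by scintillation.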

[1] = target: T2, CDK2 in complex with cyclin A (Homo sapiens, UniProt P24941); test: Kinase Selectivity Assay CDK2; format: biochemical
T2 construct: purchased Upstate Biotech
Protocol: (§1) Assays to test compound inhibition of other kinases were preformed using methods that measure the amount of phosphorylation of a biotinylated peptide substrate. Biotinylated peptide substrates were selected from the literature as appropriate for the enzyme being evaluated. […] Assay conditions vary slightly for each protein kinase, for example, insulin receptor kinase requires 10 mM MnCl2 for activity and Calmodulin-dependent protein kinase requires calmodulin and 10 mM CaCl2. These assay conditions are known in the art. The reaction mixture was dispensed into the wells of a streptavidin coated Flashplate and 1 μl drug stock in 100% DMSO was added to a 100 μl reaction volume resulting in a final concentration of 1% DMSO on the reaction. Enzyme was diluted in 50 mM Tris-HCl pH=8.0, 0.1% BSA and add to each well. The reaction was incubated for one hour at 30° C. in the presence of compound. After one hour the reaction mix was aspirated from the plate and the plate was washed with PBS containing 100 mM EDTA. The plate was read on a scintillation counter to determine ^33P-γ-ATP incorporated into the immobilized peptide. Test compounds were assayed in duplicate at 8 concentrations [100 uM, 10 uM, 1 uM, 100 nM, 10 nM, 1 nM, 100 pM, 10 pM]. A maximum and minimum signal for the assay was determined on each plate. The IC50 was calculated from the dose response curve of the percent inhibition of the maximum signal in the assay according to the formula [max signal—background/test compound signal—background (100)=% inhibition] by graphing the percent inhibition against the log concentration of test compound. Known inhibitor compounds appropriate for the kinase being assayed were also included on each plate.
(§2) CDK2 in complex with cyclin A is commercially available (Upstate Biotech, Lake Placid, N.Y.). The CDK4 complex was composed of a mouse CDK4 protein and a mouse Cyclin D1 protein (The mouse CDK4 protein was genetically fused to an N-terminal Flag-epitope tag and the mouse Cyclin D1 protein was fused with an N-terminal AU-1 epitope tag. The genes encoding these proteins were transferred to commercially available baculoviral vectors. The recombinant CDK4/D1 complex was then made by co-infecting commercially available insect cells with viruses carrying these two constructs). […] ERK-1 protein (Discontinued from Calbiochem). EGFR (epidermal growth factor receptor) is purified from human A431 cell membranes (Sigma, St. Louis, Mo., Cat.# E3641).

[2] = target: T3, VEGF-R (vascular endothelial growth factor receptor-2) (Rattus norvegicus, UniProt O08775); test: VEGF-R Screening Assay; format: biochemical; conditions: read-out: VEGF-R IC50
T3 construct: polyhistidine (6xHIS) (N)

[3] = target: T4, HER2 (human epidermal growth factor receptor-2) (Homo sapiens, UniProt P04626); test: Kinase Selectivity Assay HER2; format: biochemical; conditions: Kinase Selectivity, Tables 2a-2k; read-out: HER2 Kinase IC50
T4 construct: begins at amino acid 676 followed by the remainder of the HER2 cytoplasmic domain; polyhistidine (N)
Outline: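 Biotinylated peptide phosphorylation measured as ^33P-γ-ATP incorporation on streptavidin plates after 1 h at 30° C, 1% DMSO final, enzyme in 50 mM Tris-HCl pH 8.0, 0.1% BSA. Compounds in duplicate at 8 concentrations, 100 uM to 10 pM. IC50 from percent inhibition versus log concentration.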

[4] = target: T5, Glycogen Synthase Kinase-3 (beta isoform) (Oryctolagus cuniculus, UniProt G1T8E2); test: Kinase Selectivity Assay Glycogen Synthase Kinase-3; format: biochemical, rabbit; conditions: Kinase Selectivity, Tables 2a-2k; read-out: GSK-3 IC50
T5 construct: purchased New England Biolabs 6040; host or cells: E. coli
Protocol: as §1, §2

[5] = target: T6, Casein Kinase 2 (alpha and beta subunits) (Homo sapiens, UniProt P68400); test: Kinase Selectivity Assay Casein Kinase 2; format: biochemical; conditions: Kinase Selectivity, Tables 2a-2k; read-out: Caseine Kinase 2 IC50
T6 construct: purchased New England Biolabs 6010; host or cells: E. coli
Protocol: as §1, §2

[6] = target: T7, Calmodulin Kinase (calmodulin-dependent protein kinase 2) (Rattus norvegicus, UniProt P11275); test: Kinase Selectivity Assay Calmodulin Kinase; format: biochemical; conditions: Kinase Selectivity, Tables 2a-2k; read-out: Calmodulin Kinase 2 IC50
T7 construct: a truncated version of the alpha subunit of the rat protein; purchased New England Biolabs 6060; host or cells: insect cells
Protocol: as §1, §2

Insulin Receptor Kinase = Insulin Receptor Kinase (Homo sapiens, UniProt P06213); test: Kinase Selectivity Assay Insulin Receptor Kinase; format: biochemical; conditions: Kinase Selectivity, Tables 2a-2k; read-out: Insulin R Kinase IC50
Protocol: as §1, §2

[7] = target: T8, Casein Kinase 1 (CK1 delta isoform) (Rattus norvegicus, UniProt Q06486); test: Kinase Selectivity Assay Casein Kinase 1; format: biochemical; conditions: Tables 2a-2k, read-out: Caseine Kinase 1 IC50
T8 construct: a truncation at amino acid 318 of the C-terminal portion of the rat CK1 delta isoform; purchased New England Biolabs 6030; host or cells: E. coli
T8 sequence (Q06486 1-317): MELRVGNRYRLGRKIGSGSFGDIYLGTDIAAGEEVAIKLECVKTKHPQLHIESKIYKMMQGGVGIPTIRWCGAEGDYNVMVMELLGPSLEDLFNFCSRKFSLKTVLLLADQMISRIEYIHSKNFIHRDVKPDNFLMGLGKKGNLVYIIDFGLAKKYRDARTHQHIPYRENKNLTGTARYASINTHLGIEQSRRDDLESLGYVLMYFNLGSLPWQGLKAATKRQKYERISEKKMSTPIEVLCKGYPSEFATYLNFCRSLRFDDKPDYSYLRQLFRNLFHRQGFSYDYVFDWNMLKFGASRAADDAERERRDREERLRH
Protocol: as §1, §2

[8] = target: T9, PDGF-R (platelet derived growth factor receptor) beta subunit kinase domain (Homo sapiens, UniProt P09619); test: Kinase Selectivity Assay PDGF-R; format: biochemical; conditions: Kinase Selectivity, Tables 2a-2k; read-out: PDGF-R kinase IC50
T9 construct: nucleotides 1874-3507 of the human PDGF-R beta subunit kinase domain; polyhistidine (N)
Protocol: as §1, §2

Protein Kinase A = target: T10, Protein Kinase A (Bos taurus, UniProt P00517); test: Kinase Selectivity Assay Protein Kinase A; format: biochemical, bovine; conditions: Kinase Selectivity, Tables 2a-2k; read-out: PKA IC50
T10 construct: purified from bovine heart; purchased Upstate Biotech 14-114; host or cells: bovine heart
Protocol: as §1, §2

[9] = target: T11, MAP Kinase (ERK-2 isoform) (Rattus norvegicus, UniProt P63086); test: Kinase Selectivity Assay MAP Kinase (ERK-2); format: biochemical; conditions: Kinase Selectivity, Tables 2a-2k; read-out: ERK 2 IC50
T11 construct: polyhistidine (N); host or cells: E. coli
Protocol: as §1, §2

[10] = tested on: HeLa cervical adenocarcinoma; test: Inhibition of Cell Proliferation (14C-thymidine incorporation), HeLa; format: cell-based; conditions: Homo sapiens, HeLa cell line
Protocol: (§3) The ability of a test compound to inhibit the proliferation of cell growth was determined by measuring incorporation of ^14C-labelled thymidine into newly synthesized DNA within the cells. This method was used on cell lines derived from carcinomas originating from several tissues such as HeLa cervical adenocarcinoma (American Type Culture Collection (ATCC), Virginia, Cat. #CCL-2), A375 malignant melanoma (ATCC CRL-1619), SK-OV-3 ovarian adenocarcinoma (ATCC HTB-77) HCT-116 colon carcinoma (CCL-247), PC-3 prostate adenocarcinoma (ATCC CRL-1435), and MDA-MB-231 (Xenogen Corp.) In this way the effect of a compound on cell growth of cells with many different phenotypes can be determined. Cells were trypsinized and counted and 3000-8000 cells were added to each well of a 96-well CytoStar tissue culture treated scintillating microplate (Amersham #RPNQ0160) in complete medium in a volume of 100 μl. Cells were incubated for 24 hours in complete medium at 37° C. in an atmosphere containing 5% CO2. Next, 1 μl of test compound in 100% DMSO was added to the wells of the plate. DMSO only was added to control wells. Cells were incubated for 24 more hours in complete medium at 37° C. in an atmosphere containing 5% CO2. Methyl ^14C-thymidine 56 mCi/mmol (NEN #NEC568 or Amersham #CFA532) was diluted in complete medium and 0.2 uCi/well was added to each well of the CytoStar plate in a volume of 20 μl. The plate was incubated for 24 hours at 37° C. plus 5% CO2 in drug plus ^14C-thymidine. The contents of the plate were discarded into a ^14C radioactive waste container by inverting the plate and the plate was washed twice with 200 μl PBS. 200 μl of PBS is added to each well. The top of the plate was sealed with a transparent plate sealer and a white plate backing sealer (Packard #6005199) was applied to the bottom of the plate. The degree of methyl ^14C-thymidine incorporation was quantified on a Packard Top Count.

A375 malignant melanoma = test: Inhibition of Cell Proliferation (14C-thymidine incorporation), A375; format: cell-based; conditions: Homo sapiens, A-375, A375 cell line
Protocol: as §3

HCT-116 colon carcinoma = test: Inhibition of Cell Proliferation (14C-thymidine incorporation), HCT-116; format: cell-based; conditions: Homo sapiens, HCT-116 cell line
Protocol: as §3

[11] = Kinase Selectivity, Tables 2a-2k

T3 sequence (O08775 786-1343): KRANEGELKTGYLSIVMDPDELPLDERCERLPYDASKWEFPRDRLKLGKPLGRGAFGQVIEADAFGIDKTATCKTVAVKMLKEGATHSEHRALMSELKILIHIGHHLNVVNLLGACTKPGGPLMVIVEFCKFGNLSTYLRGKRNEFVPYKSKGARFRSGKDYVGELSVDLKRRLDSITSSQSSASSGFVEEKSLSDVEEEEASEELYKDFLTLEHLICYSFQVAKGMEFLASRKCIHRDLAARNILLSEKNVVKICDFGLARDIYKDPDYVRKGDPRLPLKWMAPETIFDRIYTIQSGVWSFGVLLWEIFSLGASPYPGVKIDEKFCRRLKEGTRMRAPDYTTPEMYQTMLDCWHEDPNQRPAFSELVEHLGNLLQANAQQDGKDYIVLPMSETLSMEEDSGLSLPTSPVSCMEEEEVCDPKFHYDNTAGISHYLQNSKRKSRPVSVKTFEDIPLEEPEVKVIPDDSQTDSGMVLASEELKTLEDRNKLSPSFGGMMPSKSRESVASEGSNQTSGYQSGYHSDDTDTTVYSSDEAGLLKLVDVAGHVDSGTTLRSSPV
T5 sequence (G1T8E2 1-432): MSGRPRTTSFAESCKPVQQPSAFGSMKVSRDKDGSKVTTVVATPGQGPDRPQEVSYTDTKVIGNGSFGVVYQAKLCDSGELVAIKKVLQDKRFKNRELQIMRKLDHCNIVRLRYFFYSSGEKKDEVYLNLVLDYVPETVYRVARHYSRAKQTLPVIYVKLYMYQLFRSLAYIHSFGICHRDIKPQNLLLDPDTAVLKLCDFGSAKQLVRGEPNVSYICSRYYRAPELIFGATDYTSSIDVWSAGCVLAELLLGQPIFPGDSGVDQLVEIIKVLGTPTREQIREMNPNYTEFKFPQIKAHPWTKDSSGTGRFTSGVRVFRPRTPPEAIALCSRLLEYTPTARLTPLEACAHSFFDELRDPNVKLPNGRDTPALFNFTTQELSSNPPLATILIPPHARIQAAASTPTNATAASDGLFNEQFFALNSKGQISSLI
T1 sequence (P06493 whole entry): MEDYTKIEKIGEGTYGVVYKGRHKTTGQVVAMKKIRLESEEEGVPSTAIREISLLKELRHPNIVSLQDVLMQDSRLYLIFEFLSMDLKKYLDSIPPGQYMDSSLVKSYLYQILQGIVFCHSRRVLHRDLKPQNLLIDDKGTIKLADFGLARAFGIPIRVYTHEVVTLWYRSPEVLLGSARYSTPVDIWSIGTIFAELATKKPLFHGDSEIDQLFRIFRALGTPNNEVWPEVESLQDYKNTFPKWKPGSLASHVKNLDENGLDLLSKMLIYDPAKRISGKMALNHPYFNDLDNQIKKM
T1 sequence (P14635 whole entry partner): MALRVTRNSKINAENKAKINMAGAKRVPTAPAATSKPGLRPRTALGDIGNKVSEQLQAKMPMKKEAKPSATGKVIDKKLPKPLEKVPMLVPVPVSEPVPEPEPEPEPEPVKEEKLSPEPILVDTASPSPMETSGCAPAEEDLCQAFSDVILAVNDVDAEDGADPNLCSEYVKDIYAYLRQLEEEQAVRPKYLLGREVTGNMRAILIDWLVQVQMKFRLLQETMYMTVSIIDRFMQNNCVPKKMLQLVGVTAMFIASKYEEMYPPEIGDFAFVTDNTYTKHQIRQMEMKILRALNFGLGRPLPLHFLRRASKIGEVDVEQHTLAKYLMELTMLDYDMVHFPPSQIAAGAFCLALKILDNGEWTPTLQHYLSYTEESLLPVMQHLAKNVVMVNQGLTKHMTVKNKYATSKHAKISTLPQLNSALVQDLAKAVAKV
T4 sequence (P04626 676-1255 limits assumed): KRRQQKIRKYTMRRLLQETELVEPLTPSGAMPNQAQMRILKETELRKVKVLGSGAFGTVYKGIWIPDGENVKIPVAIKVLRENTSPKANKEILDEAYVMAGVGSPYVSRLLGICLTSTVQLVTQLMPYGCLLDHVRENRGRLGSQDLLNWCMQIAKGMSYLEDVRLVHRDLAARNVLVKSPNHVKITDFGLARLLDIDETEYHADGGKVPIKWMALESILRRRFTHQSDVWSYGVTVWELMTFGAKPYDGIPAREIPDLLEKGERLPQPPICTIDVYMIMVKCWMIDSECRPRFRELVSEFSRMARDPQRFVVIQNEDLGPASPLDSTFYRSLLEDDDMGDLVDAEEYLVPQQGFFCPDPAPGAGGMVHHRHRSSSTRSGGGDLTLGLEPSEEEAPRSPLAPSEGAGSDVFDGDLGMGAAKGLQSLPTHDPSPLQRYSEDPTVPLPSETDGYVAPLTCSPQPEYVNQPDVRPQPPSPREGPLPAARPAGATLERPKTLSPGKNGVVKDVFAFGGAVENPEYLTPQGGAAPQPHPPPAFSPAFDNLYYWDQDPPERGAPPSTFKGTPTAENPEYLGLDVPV
T6 sequence (P68400 whole entry): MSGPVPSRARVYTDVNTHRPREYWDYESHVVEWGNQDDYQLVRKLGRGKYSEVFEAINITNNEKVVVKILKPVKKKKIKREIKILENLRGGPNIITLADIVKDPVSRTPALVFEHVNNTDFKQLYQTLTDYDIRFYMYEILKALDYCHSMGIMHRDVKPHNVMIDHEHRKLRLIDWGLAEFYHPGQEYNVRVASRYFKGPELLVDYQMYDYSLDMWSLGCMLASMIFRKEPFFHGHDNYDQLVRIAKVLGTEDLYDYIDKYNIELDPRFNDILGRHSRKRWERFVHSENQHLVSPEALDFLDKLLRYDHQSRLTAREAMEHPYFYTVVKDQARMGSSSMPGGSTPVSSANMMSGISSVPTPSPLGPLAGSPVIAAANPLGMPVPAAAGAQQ
T6 sequence (P67870 whole entry partner): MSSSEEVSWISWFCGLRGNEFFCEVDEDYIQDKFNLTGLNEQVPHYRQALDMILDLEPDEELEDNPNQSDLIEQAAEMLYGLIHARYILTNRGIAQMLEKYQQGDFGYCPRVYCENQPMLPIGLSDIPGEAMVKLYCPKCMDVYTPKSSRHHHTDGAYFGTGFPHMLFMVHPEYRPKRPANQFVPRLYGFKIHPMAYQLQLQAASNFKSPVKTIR
T9 sequence (P09619 564-1106): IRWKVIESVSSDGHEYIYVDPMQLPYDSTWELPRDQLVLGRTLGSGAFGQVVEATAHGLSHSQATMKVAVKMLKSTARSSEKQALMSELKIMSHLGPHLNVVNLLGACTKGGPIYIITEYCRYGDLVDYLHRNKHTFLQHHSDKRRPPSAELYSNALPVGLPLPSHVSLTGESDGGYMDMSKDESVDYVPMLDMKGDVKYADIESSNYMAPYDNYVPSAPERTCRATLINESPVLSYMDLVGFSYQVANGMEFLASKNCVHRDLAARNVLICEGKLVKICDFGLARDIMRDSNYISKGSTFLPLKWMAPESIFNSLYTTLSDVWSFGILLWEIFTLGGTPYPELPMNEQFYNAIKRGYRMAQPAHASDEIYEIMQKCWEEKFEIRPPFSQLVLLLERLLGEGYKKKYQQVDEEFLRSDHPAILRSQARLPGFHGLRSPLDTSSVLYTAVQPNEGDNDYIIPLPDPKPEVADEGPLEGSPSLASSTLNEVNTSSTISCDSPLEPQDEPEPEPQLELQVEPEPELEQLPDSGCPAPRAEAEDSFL
T11 sequence (P63086 whole entry, canonical isoform): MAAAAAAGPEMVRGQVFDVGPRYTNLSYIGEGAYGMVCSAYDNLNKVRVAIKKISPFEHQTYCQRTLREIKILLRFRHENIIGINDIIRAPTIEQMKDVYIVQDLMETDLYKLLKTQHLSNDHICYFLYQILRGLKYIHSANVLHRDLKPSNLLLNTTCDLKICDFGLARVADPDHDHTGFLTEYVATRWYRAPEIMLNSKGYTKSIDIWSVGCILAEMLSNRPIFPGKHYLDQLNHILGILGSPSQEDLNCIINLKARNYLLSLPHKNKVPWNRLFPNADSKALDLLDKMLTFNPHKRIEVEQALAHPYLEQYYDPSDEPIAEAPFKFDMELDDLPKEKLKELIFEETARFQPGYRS
Chain of Insulin Receptor Kinase (P06213 980-1352): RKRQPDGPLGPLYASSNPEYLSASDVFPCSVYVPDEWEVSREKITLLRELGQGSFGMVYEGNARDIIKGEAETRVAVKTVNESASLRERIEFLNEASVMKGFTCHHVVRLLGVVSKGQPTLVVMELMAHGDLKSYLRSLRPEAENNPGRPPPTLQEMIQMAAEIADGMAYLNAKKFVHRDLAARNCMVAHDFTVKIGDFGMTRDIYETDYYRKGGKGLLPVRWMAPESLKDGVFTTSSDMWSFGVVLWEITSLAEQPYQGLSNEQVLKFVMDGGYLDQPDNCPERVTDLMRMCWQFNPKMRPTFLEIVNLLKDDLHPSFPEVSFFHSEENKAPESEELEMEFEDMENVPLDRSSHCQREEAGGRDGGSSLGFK

Row | Structure (SMILES) | IC50 (CDK1:Cyclin-B) | IC50 [1, 11] | IC50 [2, 11] | IC50 [3] | IC50 [4] | IC50 [5] | IC50 [6] | IC50 ([1]; Table 1) | IC50 (Insulin Receptor Kinase) | IC50 [7] | IC50 [8] | IC50 (Protein Kinase A) | IC50 ([2]; Table 1) | IC50 [9] | IC50 [10] | IC50 (A375 malignant melanoma) | IC50 (HCT-116 colon carcinoma)
1 | Nc1nc(Nc2ccccc2)nn1C(=O)c1c(F)cccc1F [Cpd 61, 1-(2,6-Difluorobenzoyl)-N^3-phenyl-1H-1,2,4-triazole-3,5-diamine] | 180 nM | 49 nM | 72 nM | 820 nM | 55 nM |  |  |  |  |  |  |  |  |  |  |  | 
2 | Nc1nc(Nc2ccc(S(N)(=O)=O)cc2)n(C(=S)Nc2c(F)cccc2F)n1 [Cpd 128, 3-amino-5-[[4-(aminosulfonyl)phenyl]amino]-N-(2,6-difluorophenyl)-1H-1,2,4-triazole-1-carbothioamide] |  |  | 118 nM |  | 94 nM | > 100000 nM | 13200 nM | 3.3 nM | 2650 nM | 8970 nM | 1910 nM | > 100000 nM | 118 nM | 2070 nM |  |  | 
3 | Nc1nc(Nc2ccccc2)nn1C(=O)c1ccccc1 [Cpd 62, 1-benzoyl-N^3-phenyl-1H-1,2,4-triazole-3,5-diamine] | 530 nM | 290 nM | 64 nM | 410 nM | 73 nM |  |  |  |  |  |  |  |  |  |  |  | 
4 | Nc1nc(Nc2ccccc2)n(C(=O)c2c(F)cccc2F)n1 [Cpd 124, 1-(2,6-difluorobenzoyl)-N^5-phenyl-1H-1,2,4-triazole-3,5-diamine] | 2200 nM | 1700 nM | 4800 nM | 820 nM | 3000 nM |  |  |  |  |  |  |  |  |  |  |  | 
5 | Nc1nc(Nc2ccc(N3CCNC3=O)cc2)nn1C(=O)c1c(F)cccc1F [Cpd 115, 1-[4-[[5-amino-1-(2,6-difluorobenzoyl)-1H-1,2,4-triazol-3-yl]amino]phenyl]-2-imidazolidinone] |  |  |  |  | 391 nM | > 100000 nM | > 100000 nM |  | > 10000 nM | 9980 nM | > 10000 nM | > 100000 nM |  | > 10000 nM | 676 nM | 529 nM | 486 nM
